Results published in US20220152203A1, “BROAD-BASED THERAPEUTIC FOR INACTIVATING COVID-19 AND OTHER VIRAL PATHOGENS USING CHEMILUMINESCENCE-ACTIVATED COMPOUNDS ENCAPSULATED IN NANOPARTICLES” (priority 2020, published 2022).
In brackets after ≈: the same amount, converted by molar mass. Several values for one entry are separate records, joined by “and”; a condition that tells them apart may be missing. Equal entries are not always repeated. Where two headings read alike, the source gives them in different places.

Experiments:
[1] = cited from earlier work
HIV-1ΔtatΔrev = type: cell-based
HIV = details: hypericin with “molecular flashlight”, cell culture in vitro; cited from earlier work
[2] = −20° C. in the absence of light and oxygen; cited from earlier work

| SMILES | solubility in DMSO ([1]; DMSO) [mg/mL] | solubility in methanol ([1]; methanol) [mg/mL] | HIV p24 concentration as a function of time after infection (HIV-1ΔtatΔrev; day 0 (inoculum), hypericin exposed to the light (positive control)) [ng/mL] | HIV p24 concentration as a function of time after infection (HIV-1ΔtatΔrev; day 0 (inoculum), not exposed to light, hypericin 5 μmol, 2 h 37° C., replicates 1-3) [ng/mL] | HIV p24 concentration as a function of time after infection (HIV-1ΔtatΔrev; day 3, hypericin exposed to the light (positive control)) [ng/mL] | HIV p24 concentration as a function of time after infection (HIV-1ΔtatΔrev; day 3, not exposed to light, hypericin 5 μmol, 2 h 37° C., replicates 1-3) [ng/mL] | HIV p24 concentration as a function of time after infection (HIV-1ΔtatΔrev; day 6, hypericin exposed to the light (positive control)) [ng/mL] | HIV p24 concentration as a function of time after infection (HIV-1ΔtatΔrev; day 6, not exposed to light, hypericin 5 μmol, 2 h 37° C., replicates 1-3, listed as Hyp only) | HIV p24 concentration as a function of time after infection (HIV-1ΔtatΔrev; day 9, hypericin exposed to the light (positive control)) [ng/mL] | HIV p24 concentration as a function of time after infection (HIV-1ΔtatΔrev; day 9, not exposed to light, hypericin 5 μmol, 2 h 37° C., replicates 1-3, listed as Hyp only) | HIV p24 concentration as a function of time after infection (HIV-1ΔtatΔrev; day 13, hypericin exposed to the light (positive control)) [ng/mL] | HIV p24 concentration as a function of time after infection (HIV-1ΔtatΔrev; day 13, not exposed to light, hypericin 5 μmol, 2 h 37° C., replicates 1-3, listed as Hyp only) | HIV p24 concentration as a function of time after infection (HIV-1ΔtatΔrev; day 16, hypericin exposed to the light (positive control)) [ng/mL] | HIV p24 concentration as a function of time after infection (HIV-1ΔtatΔrev; day 16, not exposed to light, hypericin 5 μmol, 2 h 37° C., replicates 1-3, listed as Hyp only) | HIV p24 concentration as a function of time after infection (HIV-1ΔtatΔrev; day 20, hypericin exposed to the light (positive control)) [ng/mL] | HIV p24 concentration as a function of time after infection (HIV-1ΔtatΔrev; day 20, not exposed to light, hypericin 5 μmol, 2 h 37° C., replicates 1-3, listed as Hyp only) | effect on host cells (HIV) | solubility ([1]; DMSO) | storage stability [2] |
| --- | --- | --- | --- | --- | --- | --- | --- | --- | --- | --- | --- | --- | --- | --- | --- | --- | --- | --- | --- |
| O=C(O)C1CSC(c2nc3ccc(O)cc3s2)=N1 [D-luciferin, 4,5-Dihydro-2-(6-hydroxy-2-benzothiazolyl)-4-thiazolecarboxylic acid] | 50 (≈ 178 mM) | 10 (≈ 35.7 mM) |  |  |  |  |  |  |  |  |  |  |  |  |  |  |  |  |  |
| Cc1cc(O)c2c(=O)c3c(O)cc(O)c4c5c(O)cc(O)c6c(=O)c7c(O)cc(C)c8c1c2c(c34)c(c78)c65 [hypericin, Hypericin] |  |  | 1 | 1 | 0.05 | 0.05 | 0.05 | 19.34 ng/mL and 12.13 ng/mL and 11 ng/mL | 3 | 1,055 ng/ml and 831 ng/ml and 1,120 ng/ml | 2.9 | 1,985 ng/ml and 3,501 ng/ml and 3,270 ng/ml | 0.05 | 1,870 ng/ml and 1543 ng/ml and 923 ng/ml | 6.6 | 1,763 ng/ml and 2,789 ng/ml and 2,775 ng/ml | without harming these cells | soluble in DMSO | stable |
